The values that follow come from ChEMBL document CHEMBL1154644 (J Med Chem, 2009).

The source made the active and inactive calls.

The target in series [1] is T1, Serine/threonine-protein kinase mTOR (Homo sapiens, UniProt P42345). The experiment in a line: Inhibition of human mTOR by DELFIA assay. The format is single protein.
The nature of series [2]: Selectivity for human mTOR over PI3Kalpha.
Series [3] has as its target Phosphatidylinositol 4,5-bisphosphate 3-kinase catalytic subunit alpha isoform (Homo sapiens, UniProt P42336). The experiment in a line: Inhibition of PI3Kalpha by fluorescence polarization assay. Background: Fluorescence polarisation rises when a labelled molecule tumbles more slowly, as on binding a larger partner.
Series [4] can be described thus: Clearance in rat hepatocyte assessed as half life. It counts as ADME, cell-based, Liver. The conditions noted are these: hepatocytes.
Series [5] addresses T1, Serine/threonine-protein kinase mTOR. The experiment in a line: Inhibition of mTOR-mediated signaling in human A498 cells assessed as inhibition of phosphorylation of S6K1(T389) measured after 6 hrs by immunoblotting. It counts as cell-based.
For series [6] the target is unchanged. The experiment in a line: Inhibition of mTOR-mediated signaling in human A498 cells assessed as inhibition of phosphorylation of AKT (S473) measured after 6 hrs by immunoblotting.
For series [7] the target is unchanged. As to the kind of experiment: Inhibition of mTOR-mediated signaling in human A498 cells assessed as inhibition of phosphorylation of 4EBP1 (T70) measured after 6 hrs by immunoblotting. It counts as cell-based. (In general: A western blot detects proteins with antibodies after separation by electrophoresis.)
Series [8] shares this target. The experiment in a line: Inhibition of mTOR-mediated signaling in human A498 cells assessed as inhibition of phosphorylation of 4EBP1 (T37/46) measured after 6 hrs by immunoblotting. It counts as cell-based.
The nature of series [9]: Inhibition of AMPK at 2 uM.
Series [10] deals with Serine/threonine-protein kinase 26 (Homo sapiens) (UniProt Q9P289). The experiment in a line: Inhibition of MST4 at 2 uM.
Serine/threonine-protein kinase 26 (Homo sapiens), sequence (Q9P289 2-416 limits assumed): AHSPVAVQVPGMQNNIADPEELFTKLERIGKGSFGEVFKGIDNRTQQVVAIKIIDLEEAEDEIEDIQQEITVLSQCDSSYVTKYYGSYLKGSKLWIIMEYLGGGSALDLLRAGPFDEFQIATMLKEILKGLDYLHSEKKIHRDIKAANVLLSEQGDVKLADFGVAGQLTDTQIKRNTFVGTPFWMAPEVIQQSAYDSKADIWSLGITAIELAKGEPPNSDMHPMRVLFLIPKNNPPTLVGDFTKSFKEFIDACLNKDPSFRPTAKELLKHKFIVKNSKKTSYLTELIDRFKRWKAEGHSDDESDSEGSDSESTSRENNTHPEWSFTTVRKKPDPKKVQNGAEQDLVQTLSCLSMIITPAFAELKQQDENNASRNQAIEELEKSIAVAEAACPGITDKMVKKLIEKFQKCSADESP
The target in series [11] is Angiopoietin-1 receptor (Homo sapiens) (UniProt Q02763). As to the kind of experiment: Inhibition of TEK at 2 uM.
Series [12] addresses Tyrosine-protein kinase CSK (Homo sapiens) (UniProt P41240). The experiment in a line: Inhibition of CSK at 2 uM.
Series [13] concerns the target BDNF/NT-3 growth factors receptor (Homo sapiens) (UniProt Q16620). The experiment in a line: Inhibition of NTRK2 at 2 uM.
The target of series [14] is T2, Serine/threonine-protein kinase Sgk3 (Homo sapiens) (UniProt Q96BR1).
T2 sequence (whole entry): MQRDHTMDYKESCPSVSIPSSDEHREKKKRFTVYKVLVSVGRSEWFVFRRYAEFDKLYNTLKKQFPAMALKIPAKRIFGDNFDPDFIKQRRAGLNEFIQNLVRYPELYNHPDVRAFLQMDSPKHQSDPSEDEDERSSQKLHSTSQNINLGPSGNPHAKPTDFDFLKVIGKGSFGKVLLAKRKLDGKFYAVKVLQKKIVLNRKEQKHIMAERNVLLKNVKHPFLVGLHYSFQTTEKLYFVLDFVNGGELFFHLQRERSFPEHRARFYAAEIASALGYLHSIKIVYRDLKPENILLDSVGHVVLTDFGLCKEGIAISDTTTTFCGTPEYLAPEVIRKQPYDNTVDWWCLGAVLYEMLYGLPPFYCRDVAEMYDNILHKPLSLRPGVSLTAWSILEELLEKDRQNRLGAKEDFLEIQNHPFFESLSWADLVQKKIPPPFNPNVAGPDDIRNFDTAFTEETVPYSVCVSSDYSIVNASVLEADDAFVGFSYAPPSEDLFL
The experiment in a line: Inhibition of SGKL at 2 uM.

The target of series [15] is T1, Serine/threonine-protein kinase mTOR. As to the kind of experiment: Inhibition of mTOR-mediated signaling in PTEN-negative, PI3K/AKT-hyperactive human U87MG cells assessed as inhibition of phosphorylation of S6K1(T389) measured after 6 hrs by immunoblotting. The conditions noted are these: U-87MG ATCC. It counts as cell-based.
Series [16] has the same target. The experiment in a line: Inhibition of mTOR-mediated signaling in PTEN-negative, PI3K/AKT-hyperactive human U87MG cells assessed as inhibition of phosphorylation of AKT(T308) measured after 6 hrs by immunoblotting. The settings on record: U-87MG ATCC. It counts as cell-based.
The target of series [17] is Serine/threonine-protein kinase PAK 2 (Homo sapiens) (UniProt Q13177). As to the kind of experiment: Inhibition of PAK2 at 2 uM.
Serine/threonine-protein kinase PAK 2 (Homo sapiens), sequence (Q13177 whole entry): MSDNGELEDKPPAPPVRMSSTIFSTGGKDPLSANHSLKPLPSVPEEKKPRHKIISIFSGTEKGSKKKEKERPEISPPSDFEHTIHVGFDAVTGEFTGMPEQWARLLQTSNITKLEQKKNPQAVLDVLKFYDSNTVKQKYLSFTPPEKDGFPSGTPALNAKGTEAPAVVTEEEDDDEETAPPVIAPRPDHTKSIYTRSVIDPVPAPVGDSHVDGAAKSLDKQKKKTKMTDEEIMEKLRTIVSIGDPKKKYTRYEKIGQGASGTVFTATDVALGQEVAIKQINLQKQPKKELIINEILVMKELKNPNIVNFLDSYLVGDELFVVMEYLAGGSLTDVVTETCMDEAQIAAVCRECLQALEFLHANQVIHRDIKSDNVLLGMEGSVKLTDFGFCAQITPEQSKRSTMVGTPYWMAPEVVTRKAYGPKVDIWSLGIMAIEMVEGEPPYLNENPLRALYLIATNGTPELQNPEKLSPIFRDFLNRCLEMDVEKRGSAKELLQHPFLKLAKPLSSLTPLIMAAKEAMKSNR
The target of series [18] is T1, Serine/threonine-protein kinase mTOR. As to the kind of experiment: Inhibition of mTOR-mediated signaling in PTEN-negative, PI3K/AKT-hyperactive human U87MG cells assessed as inhibition of PI3K/PDK1 measured after 6 hrs by immunoblotting. It counts as cell-based. The conditions noted are these: U-87MG ATCC.
For series [19] the target is unchanged. As to the kind of experiment: Inhibition of mTOR-mediated signaling in PTEN-negative, PI3K/AKT-hyperactive human U87MG cells assessed as inhibition of phosphorylation of AKT(S473) measured after 6 hrs by immunoblotting. The format is cell-based. The settings on record: U-87MG ATCC.
Series [20] addresses Serine/threonine-protein kinase 25 (Homo sapiens) (UniProt O00506). The experiment in a line: Inhibition of STK25 at 2 uM.
Series [21] concerns the target Dual specificity protein kinase CLK1 (Homo sapiens) (UniProt P49759). The experiment in a line: Inhibition of CLK1 at 2 uM.
For series [22], the target named is T1, Serine/threonine-protein kinase mTOR. The experiment in a line: Inhibition of human mTOR assessed as ATP competitive inhibition by Lineweaver-Burke double reciprocal dose-response plot.
Series [23] has as its target Fibroblast growth factor receptor 1 (Homo sapiens) (UniProt P11362). As to the kind of experiment: Inhibition of FGFR1 at 2 uM.
For series [24], the target named is Tyrosine-protein kinase JAK2 (Homo sapiens) (UniProt O60674). As to the kind of experiment: Inhibition of JAK2 at 2 uM.
In series [25] the target is Serine/threonine-protein kinase D3 (PRKD3/PKCν) (Homo sapiens) (UniProt O94806). The experiment in a line: Inhibition of PRKCN at 2 uM.
Serine/threonine-protein kinase D3 (PRKD3/PKCν) (Homo sapiens), sequence (O94806 whole entry, looked up): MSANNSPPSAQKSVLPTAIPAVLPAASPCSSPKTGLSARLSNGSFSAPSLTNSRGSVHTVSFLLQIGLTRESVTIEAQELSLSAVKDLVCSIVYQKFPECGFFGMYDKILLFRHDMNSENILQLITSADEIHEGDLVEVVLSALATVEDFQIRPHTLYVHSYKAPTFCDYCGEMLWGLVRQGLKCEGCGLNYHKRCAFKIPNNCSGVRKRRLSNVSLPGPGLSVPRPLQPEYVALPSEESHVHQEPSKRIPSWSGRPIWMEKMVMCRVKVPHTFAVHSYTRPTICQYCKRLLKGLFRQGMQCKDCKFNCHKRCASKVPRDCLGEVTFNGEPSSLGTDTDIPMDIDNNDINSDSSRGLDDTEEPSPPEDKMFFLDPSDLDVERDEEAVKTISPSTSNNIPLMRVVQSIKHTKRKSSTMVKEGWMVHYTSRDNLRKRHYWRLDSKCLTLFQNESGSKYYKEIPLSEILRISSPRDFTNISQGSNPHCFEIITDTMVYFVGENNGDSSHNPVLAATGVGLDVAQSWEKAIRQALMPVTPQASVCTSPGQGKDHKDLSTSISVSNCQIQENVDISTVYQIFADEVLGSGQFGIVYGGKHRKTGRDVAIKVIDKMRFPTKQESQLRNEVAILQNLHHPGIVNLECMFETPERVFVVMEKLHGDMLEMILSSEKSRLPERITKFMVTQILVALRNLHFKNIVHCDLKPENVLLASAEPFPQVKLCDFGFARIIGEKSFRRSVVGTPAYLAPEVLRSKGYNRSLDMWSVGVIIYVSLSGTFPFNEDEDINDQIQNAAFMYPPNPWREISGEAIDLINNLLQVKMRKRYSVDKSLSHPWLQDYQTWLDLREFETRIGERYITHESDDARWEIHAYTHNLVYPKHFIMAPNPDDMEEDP
The target in series [26] is T1, Serine/threonine-protein kinase mTOR. The experiment in a line: Inhibition of mTOR-mediated signaling in human A498 cells assessed as inhibition of mTORC2 biomarker measured after 6 hrs by immunoblotting. It counts as cell-based.
Series [27] addresses Serine/threonine-protein kinase PAK 5 (Homo sapiens) (UniProt Q9P286). As to the kind of experiment: Inhibition of PAK7 at 2 uM.

Phosphatidylinositol 4,5-bisphosphate 3-kinase catalytic subunit alpha isoform, sequence (P42336 whole entry, canonical isoform): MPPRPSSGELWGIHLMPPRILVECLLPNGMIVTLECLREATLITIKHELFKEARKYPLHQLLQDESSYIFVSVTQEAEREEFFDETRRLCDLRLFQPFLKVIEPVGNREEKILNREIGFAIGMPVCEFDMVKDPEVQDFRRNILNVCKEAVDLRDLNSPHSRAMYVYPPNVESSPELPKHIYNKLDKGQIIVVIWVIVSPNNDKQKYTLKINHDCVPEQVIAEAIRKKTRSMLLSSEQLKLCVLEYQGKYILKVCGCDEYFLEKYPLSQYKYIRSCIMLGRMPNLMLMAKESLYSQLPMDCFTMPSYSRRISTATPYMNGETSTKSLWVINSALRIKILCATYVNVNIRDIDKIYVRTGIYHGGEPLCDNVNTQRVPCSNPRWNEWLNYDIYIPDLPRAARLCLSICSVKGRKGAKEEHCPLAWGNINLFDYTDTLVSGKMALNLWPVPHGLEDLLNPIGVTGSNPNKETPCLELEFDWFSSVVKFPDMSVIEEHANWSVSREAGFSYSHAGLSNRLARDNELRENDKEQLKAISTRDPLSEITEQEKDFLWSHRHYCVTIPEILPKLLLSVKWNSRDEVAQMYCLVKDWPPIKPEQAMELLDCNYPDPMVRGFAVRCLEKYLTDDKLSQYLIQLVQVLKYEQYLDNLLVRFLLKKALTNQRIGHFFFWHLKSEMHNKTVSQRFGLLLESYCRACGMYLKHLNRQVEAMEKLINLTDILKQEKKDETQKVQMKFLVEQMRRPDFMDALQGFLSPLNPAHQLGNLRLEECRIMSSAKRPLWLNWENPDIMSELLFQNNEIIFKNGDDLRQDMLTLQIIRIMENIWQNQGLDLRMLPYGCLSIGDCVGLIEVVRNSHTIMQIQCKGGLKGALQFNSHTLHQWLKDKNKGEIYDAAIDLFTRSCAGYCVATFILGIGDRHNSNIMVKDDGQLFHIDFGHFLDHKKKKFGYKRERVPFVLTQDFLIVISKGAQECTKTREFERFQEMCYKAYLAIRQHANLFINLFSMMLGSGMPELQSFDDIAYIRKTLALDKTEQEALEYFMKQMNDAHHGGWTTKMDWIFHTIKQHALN
BDNF/NT-3 growth factors receptor (Homo sapiens), sequence (Q16620 32-822 limits assumed): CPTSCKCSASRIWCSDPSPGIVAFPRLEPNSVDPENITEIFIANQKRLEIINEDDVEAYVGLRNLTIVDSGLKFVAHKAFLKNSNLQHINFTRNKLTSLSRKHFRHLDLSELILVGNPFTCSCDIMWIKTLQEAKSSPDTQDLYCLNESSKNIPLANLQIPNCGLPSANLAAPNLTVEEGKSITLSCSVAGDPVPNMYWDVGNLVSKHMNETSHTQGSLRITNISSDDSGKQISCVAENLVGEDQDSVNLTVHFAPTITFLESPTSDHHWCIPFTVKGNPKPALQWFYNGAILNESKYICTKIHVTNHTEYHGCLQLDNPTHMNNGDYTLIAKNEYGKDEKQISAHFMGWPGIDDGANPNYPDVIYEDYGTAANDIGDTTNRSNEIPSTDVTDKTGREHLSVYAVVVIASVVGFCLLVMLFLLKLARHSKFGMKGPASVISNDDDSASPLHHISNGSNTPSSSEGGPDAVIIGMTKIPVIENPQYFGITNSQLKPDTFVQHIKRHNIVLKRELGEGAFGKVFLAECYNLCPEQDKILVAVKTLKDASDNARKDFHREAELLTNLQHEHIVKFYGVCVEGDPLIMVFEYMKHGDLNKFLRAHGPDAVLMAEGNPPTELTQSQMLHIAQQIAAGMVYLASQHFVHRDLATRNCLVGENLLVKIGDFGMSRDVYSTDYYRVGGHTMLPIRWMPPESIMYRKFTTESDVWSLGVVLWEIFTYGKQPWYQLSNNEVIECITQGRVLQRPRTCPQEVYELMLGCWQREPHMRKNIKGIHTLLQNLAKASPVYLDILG
Serine/threonine-protein kinase PAK 5 (Homo sapiens), sequence (Q9P286 whole entry, looked up): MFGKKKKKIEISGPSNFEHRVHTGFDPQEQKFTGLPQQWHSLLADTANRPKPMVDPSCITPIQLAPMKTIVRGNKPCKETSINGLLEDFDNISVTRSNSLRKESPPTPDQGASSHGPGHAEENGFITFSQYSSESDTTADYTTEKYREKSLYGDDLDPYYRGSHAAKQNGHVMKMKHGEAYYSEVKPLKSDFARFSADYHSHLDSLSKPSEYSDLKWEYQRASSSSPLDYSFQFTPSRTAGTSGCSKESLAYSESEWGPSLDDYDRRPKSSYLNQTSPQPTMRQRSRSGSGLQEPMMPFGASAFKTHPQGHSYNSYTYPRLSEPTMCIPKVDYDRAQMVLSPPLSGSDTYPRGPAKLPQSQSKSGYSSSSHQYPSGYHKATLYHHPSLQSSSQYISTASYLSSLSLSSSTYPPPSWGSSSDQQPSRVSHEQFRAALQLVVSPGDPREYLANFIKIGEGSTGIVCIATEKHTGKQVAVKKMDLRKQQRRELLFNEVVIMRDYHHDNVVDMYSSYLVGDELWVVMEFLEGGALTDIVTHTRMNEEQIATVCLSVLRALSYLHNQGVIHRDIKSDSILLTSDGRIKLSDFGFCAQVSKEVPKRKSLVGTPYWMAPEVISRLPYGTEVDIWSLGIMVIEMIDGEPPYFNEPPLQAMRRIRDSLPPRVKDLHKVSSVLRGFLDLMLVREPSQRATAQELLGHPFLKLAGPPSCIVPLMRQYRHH
Serine/threonine-protein kinase 25 (Homo sapiens), sequence (O00506 whole entry, looked up): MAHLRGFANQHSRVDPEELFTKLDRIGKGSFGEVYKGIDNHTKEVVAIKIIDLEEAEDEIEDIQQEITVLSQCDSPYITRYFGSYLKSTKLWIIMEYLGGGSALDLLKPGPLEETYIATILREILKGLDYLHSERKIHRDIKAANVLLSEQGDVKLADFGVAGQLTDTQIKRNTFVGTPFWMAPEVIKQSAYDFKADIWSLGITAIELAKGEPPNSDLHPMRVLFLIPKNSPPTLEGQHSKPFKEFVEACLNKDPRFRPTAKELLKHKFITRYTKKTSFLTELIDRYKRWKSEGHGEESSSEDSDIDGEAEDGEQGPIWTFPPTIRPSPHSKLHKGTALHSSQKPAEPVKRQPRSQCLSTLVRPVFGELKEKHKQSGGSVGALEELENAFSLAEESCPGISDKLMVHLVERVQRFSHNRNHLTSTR

`c1ccc(CN2CCC(n3ncc4c(N5CCOCC5)nc(-c5ccc6[nH]ccc6c5)nc43)CC2)cc1` gave an IC50 in series [1] of 88 nM.
In turn, `O=c1[nH]c2ccc(-c3nc(N4CCOCC4)c4cnn(C5CCN(Cc6ccccc6)CC5)c4n3)cc2[nH]1` displayed an IC50 in series [1] of 190 nM. Also, in series [2], the fold change (FC) was above 20.
As to `O=C(c1ccccc1)N1CCC(n2ncc3c(N4CCOCC4)nc(-c4cccc(O)c4)nc32)CC1`, the IC50 in series [1] was 4 nM; in [3], 50 nM.
In series [1], `Oc1cccc(-c2nc(N3CCOCC3)c3cnn(C4CCN(Cc5ccccc5)CC4)c3n2)c1` showed an IC50 of 78 nM. Moreover, the fold change (FC) in series [2] was above 10. For the same compound, the half-life in series [4] is 13 min.
As to `CO[C@H]1C[C@@H]2CC[C@@H](C)[C@@](O)(O2)C(=O)C(=O)N2CCCC[C@H]2C(=O)O[C@H]([C@H](C)C[C@@H]2CC[C@@H](O)[C@H](OC)C2)CC(=O)[C@H](C)/C=C(\C)[C@@H](O)[C@@H](OC)C(=O)[C@H](C)C[C@H](C)/C=C/C=C/C=C/1C`, the outcome in [5] and in series [7] was Active. Further, the result in [6] and in series [8] was inactive.
Regarding `c1ccc(CN2CCC(n3ncc4c(N5CCOCC5)nc(-c5cccnc5)nc43)CC2)cc1`, in series [1], the IC50 came to 695 nM.
Still for that read-out and setting: then `Oc1cccc(-c2nc(N3CCOCC3)c3cnn(C4CCN(Cc5cccnc5)CC4)c3n2)c1`, with 10 nM; and `c1ccc(CN2CCC(n3ncc4c(N5CCOCC5)nc(-c5ccncc5)nc43)CC2)cc1`, with 7300 nM; and `c1ccc(CN2CCC(n3ncc4c(N5CCOCC5)nc(-c5ccc6cc[nH]c6c5)nc43)CC2)cc1`, with 230 nM.
On the same count and under the same terms, as for `c1ccc(CN2CCC(n3ncc4c(N5CCOCC5)nc(-c5ccc6ncccc6c5)nc43)CC2)cc1`, the figure is 5950 nM; as for `c1ccc(CN2CCC(n3ncc4c(N5CCOCC5)nc(-c5cnc6ccccc6c5)nc43)CC2)cc1`, 120 nM.
With `c1ccc(CN2CCC(n3ncc4c(N5CCOCC5)nc(-c5cc6ccccc6[nH]5)nc43)CC2)cc1`, it took 130 nM to reach half-maximal inhibition in series [1] (IC50).
For `O=C(c1cccnc1)N1CCC(n2ncc3c(N4CCOCC4)nc(-c4ccc5[nH]ccc5c4)nc32)CC1`, the IC50 in series [1] amounted to 4 nM; in [3], 5870 nM.
Turning to `c1cncc(CN2CCC(n3ncc4c(N5CCOCC5)nc(-c5ccc6[nH]ccc6c5)nc43)CC2)c1`, the Activity entry in series [5], in series [6], in series [7], in series [26] and in series [8] was “Dose-dependent effect” in each case. This compound yielded an IC50 in series [1] of 9 nM. In addition, the inhibition in series [9], in series [10], in series [11], in [12], in series [13] and in series [14] was 50% throughout. The inhibition in [17], in [20], in [21], in series [23], in series [24] and in series [25] was 50% throughout. In [27], this compound gave an inhibition of 50%. The result in series [15], in series [19] and in series [22] was Active. For the same compound, the result in series [16] and in series [18] was inactive.
In turn, `c1ccc(CN2CCC(n3ncc4c(N5CCOCC5)nc(-c5cccc6cc[nH]c56)nc43)CC2)cc1` gave an IC50 in series [1] of 380 nM.
Compound `Oc1ccccc1-c1nc(N2CCOCC2)c2cnn(C3CCN(Cc4ccccc4)CC3)c2n1` gave an IC50 in series [1] of 1260 nM.
As for `O=C(c1cccnc1)N1CCC(n2ncc3c(N4CCOCC4)nc(-c4cccc(O)c4)nc32)CC1`, the figures for the IC50 in series [1] and in series [3] were 6 nM and 86 nM, respectively. The same compound yielded a fold change (FC) in series [2] above 10.
`Oc1cccc(-c2nc(N3CCOCC3)c3cnn(C4CCNCC4)c3n2)c1`: the IC50 in series [1] was determined as 215 nM.
The same measure, in the same setting: then `c1ccc(CN2CCC(n3ncc4c(N5CCOCC5)nc(-c5cccc6[nH]ccc56)nc43)CC2)cc1`, with 145 nM; and `Oc1ccc(-c2nc(N3CCOCC3)c3cnn(C4CCN(Cc5ccccc5)CC4)c3n2)cc1`, with 170 nM.
As to `c1cc2cc(-c3nc(N4CCOCC4)c4cnn(C5CCNCC5)c4n3)ccc2[nH]1`, the IC50 in series [1] was 170 nM.
With `CC(=O)N1CCC(n2ncc3c(N4CCOCC4)nc(-c4cccc(O)c4)nc32)CC1`, in [1], the IC50 worked out at 49 nM.

A word on the IC50: it is the concentration that inhibits the measured activity by half. The low end stands for higher potency, the high end for lower potency. The half-life is the time needed for the level to fall by half in the phase considered. The inhibition is how much of the control response was suppressed.
